Reference: patent publication US20120142730A1 (priority 2010, published 2012)

Columns and labels:
[1] = tested on: subjects with relapsing remitting multiple sclerosis (RRMS); experiment: ALLEGRO (MS-LAQ-301) phase III trial: confirmed relapse endpoints; format: in vivo, human; parameters: key to Annualized relapse rate, adjusted mean (SE): ARR = number of relapses divided by total patient exposure; conditions: for Annualized relapse rate, adjusted mean (SE): 24-month treatment period
Text: The primary endpoint of the study was the number of confirmed relapses during the double-blind treatment period, which corresponds to the annualized relapse rate (ARR—number of relapses divided by total exposure of all patients). Secondary endpoints included disability as measured by Expanded Disability Status Scale (EDSS) changes confirmed at 3 months, and cumulative number of gadolinium enhancing (GdE) and new/enlarging T2 MRI lesions. Eligible subjects were equally randomized 1:1 into one of the following treatment arms: • 1. […] 21, 2007 (see, page 10, line 5 to page 11, line 3). • 2. Matching placebo for laquinimod arm: one capsule is administered once daily. The primary endpoint was the number of confirmed relapses during the double-blind study period. A relapse was defined as the appearance of one or more new neurological abnormalities or the reappearance of one or more previously observed neurological abnormalities lasting for at least 48 hours and after an improved neurological state for at least 30 days. An event was counted as a relapse if the subject's symptoms were accompanied by observed objective neurological changes consistent with at least one of the following: an increase of at least 0.5 in the EDSS score; an increase of one grade in two or more of the seven functional systems; or an increase of two grades in one functional system. Standardized treatment of relapses was intravenous methylprednisolone 1 g/day for up to five consecutive days based on the treating neurologist's decision. The analysis of the total number of confirmed relapses during the study period is based on baseline adjusted Quasi-Likelihood (over-dispersed) Poisson Regression. Using the Poisson regression with the treatment group as a covariate, the ARR of each group was calculated for the intent-to-treat (ITT) cohort as the total number of confirmed relapses for all patients in each group divided by the total patient years in that group. In addition to the treatment group, the following covariates were included: baseline EDSS score, log of the (prior 2-year number of relapses +1) and country or geographical region.

[2] = tested on: subjects with relapsing remitting multiple sclerosis (RRMS); experiment: ALLEGRO phase III trial: safety and tolerability; format: in vivo, human
Experimental: Eligible subjects were equally randomized 1:1 into one of the following treatment arms: • 1. […] 21, 2007 (see, page 10, line 5 to page 11, line 3). • 2. Matching placebo for laquinimod arm: one capsule is administered once daily.
The following assessments were performed at specified time points: • 1. Vital signs were measured at each study visit. • 2. A physical examination is performed at months −1 (screening), (baseline) 1, 3, 6, 12, 18 and 24 (termination/early discontinuation core study). In case of the 6 months extended study, additional examination was performed at month 30 (termination/early discontinuation of extended study). • 3. The following safety clinical laboratory tests were performed: • a. Complete blood count (CBC) with differential—at all scheduled visits. A reticulocyte count was added to the CBC at months 0 (baseline) and 24/30 (termination/early discontinuation). • b. Serum chemistry (including electrolytes, liver enzymes, direct and total bilirubin and pancreatic amylase and CPK), and urinalysis—at all scheduled visits. • c. A rapid urine β-hCG test was performed in women of child-bearing potential at baseline (month 0) and at each scheduled study visit thereafter (at site). • d. β-hCG in women of child-bearing potential was performed at all scheduled visits. • e. Starting after visit Month 3 a rapid urine β-hCG test was performed in women of child-bearing potential every 28 (±2) days. […] Adverse Events (AEs) are monitored throughout the study. • 9. Concomitant medications are monitored throughout the study. • 10. […] MS functional Composite (MSFC) was assessed at months −1 (screening) (three practices for training purposes only), at month 0 (baseline), 6, 12, 18 and 24 (termination/early discontinuation). […] Subject-reported fatigue was assessed by the Modified Fatigue Impact Scale (MFIS) at months 0, 6, 12, 18, and 24 (termination/early discontinuation). […] The general health status was assessed by the EuroQoL (EQ5D) questionnaire at month 0 (baseline) and month 24 (termination/early discontinuation of the study). […]

[3] = 0.6 mg daily oral vs placebo, 24 months
[4] = post-hoc, vs placebo, listed as laquinimod

CCN(C(=O)c1c(O)c2c(Cl)cccc2n(C)c1=O)c1ccccc1 [Laquinimod, laquinimod]
Annualized rate of relapses requiring hospitalization and/or IV steroids, reduction ([1]; 0.6 mg daily oral vs placebo): 27% reduction | Increase in the time to first relapse ([1]; 0.6 mg daily oral vs placebo): 28.2% | Time to 1st confirmed relapse: reduction for the risk of 1st confirmed relapse ([1]; 0.6 mg daily oral vs placebo): 28% reduction for the | Annualized relapse rate, reduction [1, 3]: 23% reduction | Increase in odds to be relapse free [1, 3]: 55% increase odds to | Increase in odds to be relapse free ([1]; 0.6 mg daily oral vs placebo, 24 months, listed as laquinimod): 55% | Annualized relapse rate, adjusted mean (SE) ([1]; 0.6 mg daily oral): 0.304 | Annualized relapse rate, adjusted mean (SE) ([1]; 0.6 mg daily oral, listed as laquinimod): 0.304±0.022 | Annualized rate of relapses requiring hospitalization and/or IV steroids, adjusted mean ([1]; 0.6 mg daily oral, 24 months): 0.242 | Relapse-free during study, adjusted proportion ([1]; 0.6 mg daily oral, 24 months): 62.90% | Relapse-free during study, adjusted proportion ([1]; 0.6 mg daily oral, 24 months, listed as laquinimod): 62.9% | ARR 1st year ([1]; post-hoc, 0.6 mg daily oral): 0.343 | ARR for dropouts ([1]; post-hoc, 0.6 mg daily oral): 0.640 | Annualized rate of relapses requiring IV steroids ([1]; post-hoc, 0.6 mg daily oral): 0.263 | Annualized rate of relapses requiring hospitalization ([1]; post-hoc, 0.6 mg daily oral): 0.071 | Relapses with full recovery (EDSS before and after attack) ([1]; post-hoc, 0.6 mg daily oral): 0.155 | Relapses with no recovery (EDSS before and after attack) ([1]; post-hoc, 0.6 mg daily oral): 0.06 | Unconfirmed relapses ([1]; post-hoc, 0.6 mg daily oral): 0.094 | ARR by median relapse duration ([1]; post-hoc, relapse duration >34 days (n~100)): 0.964 | ARR by median relapse duration, reduction ([1]; post-hoc, relapse duration >34 days (n~100), vs placebo): 1.3% reduction | ARR by median relapse duration ([1]; post-hoc, relapse duration ≦34 days): 0.153 | ARR by median relapse duration, reduction ([1]; post-hoc, relapse duration ≦34 days, vs placebo): 37% reduction | ARR 1st year, reduction ([1]; post-hoc, vs placebo): 24% reduction | ARR for dropouts, reduction ([1]; post-hoc, vs placebo): 26% reduction | Relapses requiring IV steroids, reduction ([1]; post-hoc, vs placebo): 27% reduction | Relapses requiring hospitalization, reduction ([1]; post-hoc, vs placebo): 38% reduction | Relapses with full recovery, reduction ([1]; post-hoc, vs placebo): 13% reduction | Relapses with no recovery, reduction ([1]; post-hoc, vs placebo): 24% reduction | Unconfirmed relapses, reduction ([1]; post-hoc, vs placebo): 17% reduction | Relapses requiring IV steroids, reduction [1, 4]: 27% | Relapses requiring hospitalization, reduction [1, 4]: 38% | Deaths ([2]; 0.6 mg daily oral, 24 months): No deaths | Time of occurrence of ALT elevations up to 5×ULN ([2]; human, in vivo): ≤ 6 months | Reversibility of ALT elevations up to 5×ULN ([2]; in vivo): all were reversible
